# Test results as given in US20100075965A1, “PI3 KINASE INHIBITORS AND METHODS OF THEIR USE” (Novartis AG, priority 2006, published 2010).
# Read-outs that look alike come from different tables or passages of the source.
# Tests used:
# PI3 K Alpha = PI3 K Alpha (Homo sapiens, UniProt P42336); test: PI3 kinase phosphorylation assays (homogenous solution phase, one step solid phase, ATP depletion/KinaseGlo); type: biochemical
# A2780 cells = test: Viability assay in A2780 (Cell Titer Glo); type: cell-based, human; details: Homo sapiens, A2780 cells, read-out: A2780 Cell prolif. EC50
# How it was run: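 A2780 cells (1,000/well, DMEM + 10% FBS) were exposed to 3-fold serial dilutions of compound for 72 hrs at 37° C, 5% CO2. Viable cells were read by Cell Titer Glo luminescence, in duplicate, and EC50 values were derived from the curves.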
# [1] = ATP depletion assay, read-out: PI3 K Alpha IC50
# Chain of PI3 K Alpha (P42336 whole entry): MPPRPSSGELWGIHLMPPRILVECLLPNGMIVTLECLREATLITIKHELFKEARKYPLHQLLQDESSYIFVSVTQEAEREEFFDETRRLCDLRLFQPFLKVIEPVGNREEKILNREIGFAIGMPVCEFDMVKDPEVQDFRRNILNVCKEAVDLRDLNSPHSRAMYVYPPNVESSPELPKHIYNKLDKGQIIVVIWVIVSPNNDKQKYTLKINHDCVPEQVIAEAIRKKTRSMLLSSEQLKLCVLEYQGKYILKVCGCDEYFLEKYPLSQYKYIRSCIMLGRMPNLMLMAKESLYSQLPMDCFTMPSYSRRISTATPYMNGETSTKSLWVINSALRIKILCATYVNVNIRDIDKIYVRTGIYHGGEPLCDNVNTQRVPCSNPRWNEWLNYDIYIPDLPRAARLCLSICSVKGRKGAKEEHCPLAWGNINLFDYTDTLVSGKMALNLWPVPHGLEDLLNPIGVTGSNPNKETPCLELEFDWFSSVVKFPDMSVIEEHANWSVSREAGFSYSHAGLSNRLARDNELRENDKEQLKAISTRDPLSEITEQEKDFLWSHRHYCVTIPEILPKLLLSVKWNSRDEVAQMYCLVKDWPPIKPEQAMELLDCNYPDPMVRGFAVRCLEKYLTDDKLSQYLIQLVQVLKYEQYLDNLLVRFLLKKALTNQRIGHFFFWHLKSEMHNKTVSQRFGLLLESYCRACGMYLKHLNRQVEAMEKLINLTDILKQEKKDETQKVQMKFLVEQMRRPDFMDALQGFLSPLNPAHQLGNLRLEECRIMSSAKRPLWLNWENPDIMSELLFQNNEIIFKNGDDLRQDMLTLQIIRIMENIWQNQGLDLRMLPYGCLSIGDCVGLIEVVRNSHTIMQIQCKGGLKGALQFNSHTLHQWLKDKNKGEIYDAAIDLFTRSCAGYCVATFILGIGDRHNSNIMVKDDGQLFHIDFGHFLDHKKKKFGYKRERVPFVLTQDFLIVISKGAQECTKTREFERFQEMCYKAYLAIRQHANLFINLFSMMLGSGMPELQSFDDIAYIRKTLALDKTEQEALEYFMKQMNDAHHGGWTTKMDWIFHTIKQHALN
# Chain of PI3 K Alpha (P27986 whole entry partner): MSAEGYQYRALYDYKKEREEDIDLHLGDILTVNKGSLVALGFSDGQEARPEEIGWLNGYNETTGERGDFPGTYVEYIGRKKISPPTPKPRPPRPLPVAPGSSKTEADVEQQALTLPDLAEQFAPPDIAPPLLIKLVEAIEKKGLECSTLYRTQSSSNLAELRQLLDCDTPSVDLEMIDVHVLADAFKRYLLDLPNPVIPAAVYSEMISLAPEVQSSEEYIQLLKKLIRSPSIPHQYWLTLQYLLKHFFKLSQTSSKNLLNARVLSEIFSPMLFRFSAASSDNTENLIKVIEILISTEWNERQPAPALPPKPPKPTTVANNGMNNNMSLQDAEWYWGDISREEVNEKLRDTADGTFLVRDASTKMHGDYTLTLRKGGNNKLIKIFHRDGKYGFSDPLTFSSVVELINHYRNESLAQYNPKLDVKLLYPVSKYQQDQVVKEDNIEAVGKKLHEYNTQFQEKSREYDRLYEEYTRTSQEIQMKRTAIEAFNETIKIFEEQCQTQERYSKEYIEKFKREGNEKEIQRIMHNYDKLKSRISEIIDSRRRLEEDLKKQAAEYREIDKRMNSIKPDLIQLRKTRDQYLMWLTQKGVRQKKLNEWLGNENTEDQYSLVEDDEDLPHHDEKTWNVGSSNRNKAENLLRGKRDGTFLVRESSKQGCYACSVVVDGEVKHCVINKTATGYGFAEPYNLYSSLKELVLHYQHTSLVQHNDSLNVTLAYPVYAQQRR
SMILES,IC50 (PI3 K Alpha; read-out: PI3K Alpha IC50),EC50 (A2780 cells),IC50 (PI3 K Alpha; [1]),EC50 (A2780 cells; 72 hrs)
"CC(C)(C)OC(=O)N1CCC[C@@H]1C(=O)Nc1cn2nc(-c3cnc(N)c(C(F)(F)F)c3)ccc2n1 [Example 179, (R)-tert-butyl amino-5-(trifluoromethyl) pyridin-3-yl)imidazo[1,2-b]pyridazin-2-ylcarbamoyl) pyrrolidine-1-carboxylate]",< 1000 nM,< 25 µM,,
"C=Cc1c(NC(C)=O)nc2ccc(-c3cnc(N)c(C(F)(F)F)c3)cn12 [Example 168, N-(6-(6-amino-5-(trifluoromethyl)pyridin-3-yl)-3-vinylimidazo[1,2-a]pyridin-2-yl)acetamide]",< 1000 nM,< 25 µM,,
"CC(=O)Nc1nc2ccc(-c3cnc(N)nc3C(F)(F)F)cc2s1 [Example 2-13, N-[6-(2-Amino-4-trifluoromethyl-pyrimidin-5-yl)-benzothiazol-2-yl]-acetamide]",,,< 1000 nM,< 25 µM
"CC(=O)Nc1cn2cc(-c3cnc(N)c(Oc4ccc(N5CCN(C(C)=O)CC5)cc4)n3)ccc2n1 [Example 222, N-(6-(6-(4-(4-acetylpiperazin-1-yl)phenoxy)-5-aminopyrazin-2-yl)imidazo[1,2-a]pyridin-2-yl)acetamide]",< 1000 nM,< 10 µM,,
"Nc1ncc(-c2ccc3nc(NC(=O)N4CCC[C@H]4CO)cn3c2)cc1C(F)(F)F [Example 232, (S)-N-(6-(6-amino-5-(trifluoromethyl)pyridin-3-yl)imidazo[1,2-a]pyridin-2-yl)-2-(hydroxymethyl) pyrrolidine-1-carboxamide]",< 1000 nM,< 10 µM,,
"CC(=O)Nc1nc2ccc(-c3cnc(N)c(C(F)(F)F)c3)cn2c1CCc1ccccc1 [Example 254, N-(6-(6-amino-5-(trifluoromethyl)pyridin-3-yl)-3-phenethyl-imidazo[1,2-a]pyridin-2-yl)acetamide]",< 1000 nM,< 10 µM,,
"CC(=O)Nc1cccc(-c2c(NC(C)=O)nc3ccc(-c4cnc(N)c(C(F)(F)F)c4)cn23)c1 [Example 9, N-[3-(3-Acetylamino-phenyl)-6-(6-amino-5-trifluoromethyl-pyridin-3-yl)-imidazo[1,2-a]pyridin-2-yl]-acetamide]",< 1000 nM,< 25 µM,,
"Nc1ncc(-c2ccc3nc(NC(=O)c4ccc(F)nc4)cn3c2)cc1C(F)(F)F [Example 143, N-(6-(6-amino-5-(trifluoromethyl)pyridin-3-yl)imidazo[1,2-a]pyridin-2-yl)-6-fluoronicotinamide]",< 1000 nM,< 25 µM,,
"CC(=O)Nc1cn2nc(-c3cnc(N)c(N4CCOCC4)n3)ccc2n1 [Example 176, N-(6-(5-amino-6-morpholino-pyrazin-2-yl)imidazo[1,2-b]pyridazin-2-yl)acetamide]",< 1000 nM,< 25 µM,,
"CC(=O)Nc1cn2nc(-c3cnc(N)c(-c4cccc(C(F)(F)F)c4)c3)ccc2n1 [Example 186, N-(6-(6-amino-5-(3-(trifluoromethyl)phenyl)pyridin-3-yl)imidazo[1,2-b]pyridazin-2-yl)acetamide]",< 1000 nM,< 10 µM,,
"CCOCC(=O)Nc1cn2cc(-c3cnc(N)c(C(F)(F)F)c3)ccc2n1 [Example 199, N-(6-(6-amino-5-(trifluoromethyl)pyridin-3-yl)imidazo[1,2-a]pyridin-2-yl)-2-ethoxyacetamide]",< 1000 nM,< 10 µM,,
"Nc1ncc(-c2ccc3nc(NC(=O)c4cccc(F)c4)cn3c2)cc1C(F)(F)F [Example 192, N-(6-(6-amino-5-(trifluoromethyl)pyridin-3-yl)imidazo[1,2-a]pyridin-2-yl)-3-fluorobenzamide]",< 1000 nM,< 10 µM,,
"Nc1ncc(-c2ccc3nc(NC(=O)CO[C@@H]4CCNC4)cn3c2)cc1C(F)(F)F [Example 214, (R)-N-(6-(6-amino-5-(trifluoromethyl)pyridin-3-yl)imidazo[1,2-a]pyridin-2-yl)-2-(pyrrolidin-3-yloxy)acetamide]",< 1000 nM,< 10 µM,,
"NC(=O)Nc1cn2cc(-c3cnc(N)c(C(F)(F)F)c3)ccc2n1 [Example 219, 1-(6-(6-amino-5-(trifluoromethyl)pyridin-3-yl)imidazo[1,2-a]pyridin-2-yl)urea]",< 1000 nM,< 10 µM,,

# Further lines, results first:
IC50 (PI3 K Alpha; read-out: PI3K Alpha IC50),EC50 (A2780 cells),IC50 (PI3 K Alpha; [1]),EC50 (A2780 cells; 72 hrs),SMILES
< 1000 nM,< 25 µM,,,"CC(=O)Nc1nc2ccc(-c3cnc(N)c(C(F)(F)F)c3)cn2c1-c1cccc(F)c1 [Example 10, N-[6-(6-Amino-5-trifluoromethyl-pyridin-3-yl)-3-(3-fluoro-phenyl)-imidazo[1,2-a]pyridin-2-yl]-acetamide]"
< 1000 nM,< 25 µM,,,"CC(=O)Nc1cn2nc(-c3cnc(N)c(C(=O)NCCN)c3)ccc2n1 [Example 139, 5-(2-acetamido-imidazo[1,2-b]pyridazin-6-yl)-2-amino-N-(2-aminoethyl) nicotinamide]"
< 1000 nM,< 25 µM,,,"CCCc1c(NC(C)=O)nc2ccc(-c3cnc(N)c(C(F)(F)F)c3)cn12 [Example 31, N-[6-(6-Amino-5-trifluoromethyl-pyridin-3-yl)-3-propyl-imidazo[1,2-a]pyridin-2-yl]-acetamide]"
< 1000 nM,< 10 µM,,,"Nc1ncc(-c2ccc3nc(NC(=O)COC4CCNCC4)cn3c2)cc1C(F)(F)F [Example 200, N-(6-(6-amino-5-(trifluoromethyl)pyridin-3-yl)imidazo[1,2-a]pyridin-2-yl)-2-(piperidin-4-yloxy)acetamide]"
< 25000 nM,< 10 µM,,,"Nc1ncc(-c2ccc3nc(NC(=O)[C@@H]4CCCN4)cn3c2)cc1C(F)(F)F [Example 38, (S)-N-(6-(6-amino-5-(trifluoromethyl)pyridin-3-yl)imidazo[1,2-a]pyridin-2-yl)pyrrolidine-2-carboxamide]"
< 10000 nM,< 25 µM,,,Nc1ncc(-c2ccc3nc(NC(=O)C(F)(F)F)cn3c2O)cc1C(F)(F)F [Example 41]
< 1000 nM,< 10 µM,,,"CC(=O)Nc1cn2cc(-c3ccc(N)nc3F)ccc2n1 [Example 210, N-(6-(6-amino-2-fluoropyridin-3-yl)imidazo[1,2-a]pyridin-2-yl)acetamide]"
< 1000 nM,< 10 µM,,,"Nc1ncc(-c2ccc3nc(NC(=O)[C@@H]4CCCN4)cn3n2)cc1C(F)(F)F [Example 129, (S)-N-(6-(6-amino-5-(trifluoromethyl)pyridin-3-yl)imidazo[1,2-b]pyridazin-2-yl)pyrrolidine-2-carboxamide]"
< 1000 nM,< 25 µM,,,"CC(=O)Nc1cn2cc(-c3cnc(N)c(CN4CCCC4)c3)ccc2n1 [Example 173, N-(6-(6-amino-5-(pyrrolidin-1-ylmethyl)pyridin-3-yl)imidazo[1,2-a]pyridin-2-yl)acetamide]"
< 1000 nM,< 10 µM,,,"C[C@@H](N)C(=O)Nc1cn2nc(-c3cnc(N)c(C(F)(F)F)c3)ccc2n1 [Example 223, (R)-2-amino-N-(6-(6-amino-5-(trifluoromethyl)pyridin-3-yl)imidazo[1,2-b]pyridazin-2-yl)propanamide]"
< 1000 nM,< 25 µM,,,"COC[C@@H]1CCCN1C(=O)Nc1cn2cc(-c3cnc(N)c(C(F)(F)F)c3)ccc2n1 [Example 165, (S)-N-(6-(6-amino-5-(trifluoromethyl)pyridin-3-yl)imidazo[1,2-a]pyridin-2-yl)-2-(methoxymethyl) pyrrolidine-1-carboxamide]"
,,< 1000 nM,< 25 µM,"CC(=O)Nc1nc2cc(C)c(-c3cnc(N)c(C(F)(F)F)c3)cc2s1 [Example 2-28, N-[6-(6-Amino-5-trifluoromethyl-pyridin-3-yl)-5-methyl-benzothiazol-2-yl]-acetamide]"
< 1000 nM,< 25 µM,,,"COCCOc1nc(-c2ccc3nc(NC(=O)C4CCN4)cn3c2)cnc1N (stereo not drawn) [Example 153, N-(6-(5-amino-6-(2-methoxyethoxy)pyrazin-2-yl)imidazo[1,2-a]pyridin-2-yl)azetidine-2-carboxamide]"
< 1000 nM,< 10 µM,,,"CCN(CC)Cc1cc(-c2ccc3nc(NC(C)=O)cn3n2)cnc1N [Example 240, N-(6-(6-amino-5-((diethylamino)methyl)pyridin-3-yl)imidazo[1,2-b]pyridazin-2-yl)acetamide]"
< 1000 nM,< 25 µM,,,"CC(=O)Nc1cn2nc(-c3cnc(N)c(C(=O)NCCO)c3)ccc2n1 [Example 140, 5-(2-acetamido-imidazo[1,2-b]pyridazin-6-yl)-2-amino-N-(2-hydroxyethyl) nicotinamide]"
< 1000 nM,< 1 µM,,,"Nc1ncc(-c2ccc3nc(NC(=O)CN4CCCCC4)cn3c2)nc1OCC(F)(F)F [Example 109, N-(6-(5-amino-6-(2,2,2-trifluoroethoxy)pyrazin-2-yl)imidazo[1,2-a]pyridin-2-yl)-2-(piperidin-1-yl)acetamide]"
